Data as given in patent US20100021524A1 (OsteoGeneX Inc., priority 2008, published 2010).
Structures can show the parent of a compound that is named as a salt.

Key:
C57BL/6 mice = assay: Bone growth with pimethixene: 30-day daily i.p. treatment, serum osteocalcin (EIA Elisa) and trabecular bone volume (micro-CT); format: in vivo, mouse; settings: four month old male C57BL/6 mice, daily i.p. for 30 days, FIG. 2
Protocol: Four month old male C57BL/6 mice were treated daily with saline vehicle or the sclerostin inhibitor of pimethixene at several doses (via i.p) for 30 days. Study endpoints included a biochemical marker of bone formation; osteocalcin, measured by EIA Elisa, and measurement of trabecular bone volume by mico-CT analysis on the proximal tibia and spine (lumbar 5).

Wnt pathway = assay: Modulation of the Wnt pathway to promote bone growth (FIG. 1); settings: doses of 2.5 ng (low), 125 ng (high) and 1250 ng (very high)
Protocol: (§1) For example, the mouse test animal is treated with a predetermined dose of a SOST antagonist candidate for a complete dosing schedule. A control mouse is treated with a control solution, preferably a non-irritating buffer solution or other carrier. Once the dosing schedule has been completed, both test and control animals are examined with sacrifice using micro-CT to determine the quantity of bone formation present.

mouse = assay: Mouse bone formation assay for SOST antagonist candidates, examined by micro-CT; format: in vivo; settings: complete dosing schedule, versus control solution
From the text: Compounds useful in the methods of the present invention can be identified via a variety of methods known to one of skill in the art. Several exemplary methods for identifying such antagonists are described herein, including cell-based and in vitro techniques (Journal of Bone and Mineral Research 2006, 21(11), 1738-1749). A general method of identifying SOST antagonists involves evaluating the effects of antagonist candidates on bone formation under controlled conditions. Preferably bone formation is determined using micro-CT techniques on live animals. Preferred animals include rodents, more preferred are primates. Femur, tibia and vertebrae bones are particularly useful subjects for such study.
Briefly, the test animal is treated with a predetermined dose of a SOST antagonist candidate. […]
Once the dosing schedule has been completed, both test and control animals are examined to determine the quantity of bone formation present. […] Where necessary, levels of bone formation can be calculated by determining the volume of bone formation present in each animal. […]
as §1, with “A control mouse is treated with a control solution, preferably a non-irritating buffer solution or other carrier.” left out

| SMILES | increase in bone volume for lumbar 5 over baseline controls, μ-CT analysis (C57BL/6 mice; dosed at 0.01 mg/kg, 0.1 mg/kg or 10 mg/kg) | percent increase in serum osteocalcin bone formation marker over saline controls (C57BL/6 mice; dosed between 10 mg/kg and 0.1 mg/kg) | modulating the Wnt pathway to promote bone growth (Wnt pathway) | bone growth (quantity of bone formation present, micro-CT) (mouse) |
| --- | --- | --- | --- | --- |
| CN1CCC(=C2c3ccccc3Sc3ccccc32)CC1 [pimethixene maleate] | greater than 30% | 25% | modulating the Wnt pathway to promote bone growth |  |
| CN1CCC(=C2c3ccccc3Sc3ccccc32)CC1 [pimethixene] |  |  |  | promoting bone growth |
